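48-hour exposure; five concentrations; linearly interpolated endpoints. Here, GI50 denotes the concentration required for 50% inhibition of growth. TGI: total growth inhibition.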
How the values were obtained:
Assay in all cases: NCI tumour cell line growth inhibition, 48 h
[1] = tested on: P388/ADR leukemia
[2] = tested on: P388 leukemia
[3] = tested on: SN12K1 renal
[4] = tested on: HS 578T breast
[5] = tested on: LXFL 529 NSCLC
[6] = tested on: RXF-631 renal
[7] = tested on: MDA-N

Compound: Nc1ncnc2c1ncn2C1CCC(CO)O1 (centres undefined)
- TGI [1]: > 77.4 µM
- TGI [2]: > 100 µM
- TGI [3]: > 69.5 µM

Compound: CCN(CC)CCCC(Nc1c2ccc(Cl)cc2nc2ccc(OC)cc12)c1ccc(F)cc1 (centres undefined)
- GI50 [4]: 1.69 µM
- TGI [4]: 4.17 µM

Compound: COc1c2c(cc3c(CCc4ccccc4)cc(=O)oc13)CCC(C)(C)O2
- TGI [5]: > 100 µM

Compound: CC1=C[C@]2(CC(C)C3C(CC4(C)C5CCC6C(C)(C)C(=O)CC[C@@]67C[C@@]57CC[C@]34C)O2)OC1=O (some centres undefined)
- TGI [6]: 30.5 µM
- TGI [5]: > 100 µM

Compound: CCOP(=O)(OCC)C(Cc1ccc(OC)c(OC)c1)N=C(c1ccccc1)c1ccccc1 (centres undefined)
- TGI [7]: > 100 µM

Compound: CC(C)=CC(=O)OC1C2C(C)C(=O)OC2C(O)C(C)C2C=CC(=O)C21C (centres undefined)
- TGI [1]: 4.01 µM
- TGI [2]: 1.29 µM
- TGI [3]: 6.28 µM

Compound: CO/N=C1/c2sccc2[C@H](NC(=O)C(F)(F)F)[C@@H]1O
- TGI [7]: > 100 µM
- TGI [4]: > 100 µM

Reference: PubChem BioAssay (NCI)
